In ChEMBL document CHEMBL2439971, “Design, synthesis and antiproliferative evaluation of fluorenone analogs with DNA topoisomerase I inhibitory properties” (Bioorg Med Chem, 2013):
Calls of active or inactive are those of the source. No cut-off for these calls is given here.

Columns and labels:
HT-29 = assay: Cytotoxicity against human HT-29 cells after 48 hrs by sulforhodamine B assay; type: functional; conditions: HT-29, 48 h
HCC 2998 [1] = assay: Cytotoxicity against human HCC2998 cells after 48 hrs by sulforhodamine B assay; type: functional; conditions: HCC 2998, 48 h
COLO 205 = assay: Cytotoxicity against human COLO205 cells after 48 hrs by sulforhodamine B assay; type: functional; conditions: COLO 205, 48 h
NCI-H322M = assay: Cytotoxicity against human NCI-H322M cells after 48 hrs by sulforhodamine B assay; type: functional
NCI-H226 = assay: Cytotoxicity against human NCI-H226 cells after 48 hrs by sulforhodamine B assay; type: functional; conditions: NCI-H226, 48 h
HOP-62 = assay: Cytotoxicity against human HOP62 cells after 48 hrs by sulforhodamine B assay; type: functional; conditions: HOP-62, 48 h
[2] = target: DNA topoisomerase 1 (Homo sapiens) (UniProt P11387); assay: Inhibition of recombinant human DNA topoisomerase 1-mediated relaxation of supercoiled pHOT DNA after 45 mins by agarose gel electrophoresis
Sequence of DNA topoisomerase 1 (Homo sapiens) (P11387 whole entry): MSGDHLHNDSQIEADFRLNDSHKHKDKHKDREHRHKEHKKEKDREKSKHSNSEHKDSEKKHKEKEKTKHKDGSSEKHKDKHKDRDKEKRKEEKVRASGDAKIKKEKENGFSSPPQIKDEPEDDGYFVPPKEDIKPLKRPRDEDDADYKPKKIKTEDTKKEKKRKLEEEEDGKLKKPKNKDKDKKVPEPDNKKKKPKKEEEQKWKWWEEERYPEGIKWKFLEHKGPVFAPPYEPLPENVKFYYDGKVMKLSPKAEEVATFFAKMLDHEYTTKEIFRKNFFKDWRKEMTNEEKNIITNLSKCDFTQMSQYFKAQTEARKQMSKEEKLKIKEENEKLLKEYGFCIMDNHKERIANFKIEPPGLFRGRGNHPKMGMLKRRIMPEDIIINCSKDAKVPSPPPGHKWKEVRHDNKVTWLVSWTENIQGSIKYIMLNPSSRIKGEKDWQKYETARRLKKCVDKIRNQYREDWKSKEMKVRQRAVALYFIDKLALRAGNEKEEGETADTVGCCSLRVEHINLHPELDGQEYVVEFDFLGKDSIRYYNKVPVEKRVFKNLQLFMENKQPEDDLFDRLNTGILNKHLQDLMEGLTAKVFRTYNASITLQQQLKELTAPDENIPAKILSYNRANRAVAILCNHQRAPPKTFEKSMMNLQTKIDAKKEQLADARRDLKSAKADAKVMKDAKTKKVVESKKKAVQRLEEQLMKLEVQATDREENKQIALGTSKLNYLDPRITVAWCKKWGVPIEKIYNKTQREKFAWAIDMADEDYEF

Homo sapiens = species on record: Homo sapiens; assay: Inhibition of telomerase (unknown origin) at 10 uM TRAP assay
MDA-MB-468 = assay: Cytotoxicity against human MDA-MB-468 cells at 10 uM after 48 hrs by sulforhodamine B assay relative to control; type: functional
BT-549 = assay: Cytotoxicity against human BT549 cells at 10 uM after 48 hrs by sulforhodamine B assay relative to control; type: functional
MCF7 = assay: Cytotoxicity against human MCF7 cells at 10 uM after 48 hrs by sulforhodamine B assay relative to control; type: functional
PC-3 [3] = assay: Cytotoxicity against human PC3 cells at 10 uM after 48 hrs by sulforhodamine B assay relative to control; type: functional
RXF 393 = assay: Cytotoxicity against human RXF393 cells at 10 uM after 48 hrs by sulforhodamine B assay relative to control; type: functional
SK-MEL-28 [4] = assay: Cytotoxicity against human SK-MEL-28 cells at 10 uM after 48 hrs by sulforhodamine B assay relative to control; type: functional
M14 = assay: Cytotoxicity against human M14 cells at 10 uM after 48 hrs by sulforhodamine B assay relative to control; type: functional
Malme-3M = assay: Cytotoxicity against human MALME-3M cells at 10 uM after 48 hrs by sulforhodamine B assay relative to control; type: functional
SF-539 [5] = assay: Cytotoxicity against human SF539 cells at 10 uM after 48 hrs by sulforhodamine B assay relative to control; type: functional
SF-268 [6] = assay: Cytotoxicity against human SF268 cells at 10 uM after 48 hrs by sulforhodamine B assay relative to control; type: functional
SW-620 = assay: Cytotoxicity against human SW620 cells at 10 uM after 48 hrs by sulforhodamine B assay relative to control; type: functional
HCT-116 = assay: Cytotoxicity against human HCT116 cells at 10 uM after 48 hrs by sulforhodamine B assay relative to control; type: functional
HCC 2998 [7] = assay: Cytotoxicity against human HCC2998 cells at 10 uM after 48 hrs by sulforhodamine B assay relative to control; type: functional
NCI-H522 = assay: Cytotoxicity against human NCI-H522 cells at 10 uM after 48 hrs by sulforhodamine B assay relative to control; type: functional
A549 = assay: Cytotoxicity against human A549 cells at 10 uM after 48 hrs by sulforhodamine B assay relative to control; type: functional
SR = assay: Cytotoxicity against human SR cells at 10 uM after 48 hrs by sulforhodamine B assay relative to control; type: functional
RPMI-8226 = assay: Cytotoxicity against human RPMI8226 cells at 10 uM after 48 hrs by sulforhodamine B assay relative to control; type: functional
PC-3 [8] = assay: Cytotoxicity against human PC3 cells after 48 hrs by sulforhodamine B assay; type: functional, cell-based; conditions: PC-3, 48 h
ACHN = assay: Cytotoxicity against human ACHN cells after 48 hrs by sulforhodamine B assay; type: functional
A498 = assay: Cytotoxicity against human A498 cells after 48 hrs by sulforhodamine B assay; type: functional; conditions: A498, 48 h
OVCAR-5 = assay: Cytotoxicity against human OVCAR5 cells after 48 hrs by sulforhodamine B assay; type: functional; conditions: OVCAR-5, 48 h
OVCAR-8 = assay: Cytotoxicity against human OVCAR8 cells after 48 hrs by sulforhodamine B assay; type: functional; conditions: OVCAR-8, 48 h
OVCAR-4 = assay: Cytotoxicity against human OVCAR4 cells after 48 hrs by sulforhodamine B assay; type: functional; conditions: OVCAR-4, 48 h
UACC-257 = assay: Cytotoxicity against human UACC257 cells after 48 hrs by sulforhodamine B assay; type: functional; conditions: UACC-257, 48 h
SK-MEL-28 [9] = assay: Cytotoxicity against human SK-MEL-28 cells after 48 hrs by sulforhodamine B assay; type: functional; conditions: SK-MEL-28, 48 h
MDA-MB-435 = assay: Cytotoxicity against human MDA-MB-435 cells after 48 hrs by sulforhodamine B assay; type: functional; conditions: MDA-MB-435, 48 h
U-251 = assay: Cytotoxicity against human U251 cells after 48 hrs by sulforhodamine B assay; type: functional; conditions: U-251, 48 h
SNB-19 = assay: Cytotoxicity against human SNB19 cells after 48 hrs by sulforhodamine B assay; type: functional; conditions: SNB-19, 48 h
SF-539 [10] = assay: Cytotoxicity against human SF539 cells after 48 hrs by sulforhodamine B assay; type: functional; conditions: SF-539, 48 h
SF-268 [11] = assay: Cytotoxicity against human SF268 cells after 48 hrs by sulforhodamine B assay; type: functional; conditions: SF-268, 48 h
[12] = read-out: LC50 (the source's name)

Structure (SMILES): CCCCNCC(=O)Nc1ccc2c(c1)C(=O)c1cc(NC(=O)CNCCCC)ccc1-2
- GI50 (HT-29): 1.1 µM
- TGI (HT-29): 2.53 µM
- CC50 (HT-29; [12]): 5.86 µM
- GI50 (HCC 2998 [1]): 1.54 µM
- TGI (HCC 2998 [1]): 2.95 µM
- CC50 (HCC 2998 [1]; [12]): 5.66 µM
- GI50 (COLO 205): 1.27 µM
- TGI (COLO 205): 2.64 µM
- CC50 (COLO 205; [12]): 5.48 µM
- GI50 (NCI-H322M): 2.12 µM
- TGI (NCI-H322M): 6.93 µM
- CC50 (NCI-H322M; [12]): 31.5 µM
- GI50 (NCI-H226): 10.1 µM
- TGI (NCI-H226): 23.3 µM
- CC50 (NCI-H226; [12]): 53.6 µM
- GI50 (HOP-62): 2.07 µM
- TGI (HOP-62): 6.74 µM
- CC50 (HOP-62; [12]): 26 µM
- INH [2]: < 5 µM
- inhibition (Homo sapiens): inactive
- Activity (MDA-MB-468): -67.44%
- Activity (BT-549): 69.3%
- Activity (MCF7): 10.48%
- Activity (PC-3 [3]): -4.48%
- Activity (RXF 393): -76.54%
- Activity (SK-MEL-28 [4]): -81.88%
- Activity (M14): -91.02%
- Activity (Malme-3M): -68.3%
- Activity (SF-539 [5]): -82.99%
- Activity (SF-268 [6]): 38.37%
- Activity (SW-620): -4.84%
- Activity (HCT-116): -89.71%
- Activity (HCC 2998 [7]): -50.75%
- Activity (NCI-H522): -50.74%
- Activity (A549): -32.16%
- Activity (SR): -56.48%
- Activity (RPMI-8226): -37.38%
- GI50 (PC-3 [8]): 1.72 µM
- IC50 (PC-3 [8]): 3.61 µM
- LC50 (concentration killing 50% of cells) (PC-3 [8]): 13.1 µM
- TGI (PC-3 [8]): 4.34 µM
- GI50 (ACHN): 1.4 µM
- TGI (ACHN): 4.14 µM
- CC50 (ACHN; [12]): 14.9 µM
- GI50 (A498): 1.63 µM
- TGI (A498): 5.36 µM
- CC50 (A498; [12]): 25.1 µM
- GI50 (OVCAR-5): 3.06 µM
- TGI (OVCAR-5): 10.6 µM
- CC50 (OVCAR-5; [12]): 34.5 µM
- GI50 (OVCAR-8): 2.19 µM
- TGI (OVCAR-8): 6.16 µM
- CC50 (OVCAR-8; [12]): 28.9 µM
- GI50 (OVCAR-4): 2.06 µM
- TGI (OVCAR-4): 5.02 µM
- CC50 (OVCAR-4; [12]): 15.9 µM
- GI50 (UACC-257): 1.87 µM
- TGI (UACC-257): 3.37 µM
- CC50 (UACC-257; [12]): 6.08 µM
- GI50 (SK-MEL-28 [9]): 1.94 µM
- TGI (SK-MEL-28 [9]): 3.46 µM
- CC50 (SK-MEL-28 [9]; [12]): 6.18 µM
- GI50 (MDA-MB-435): 1.63 µM
- TGI (MDA-MB-435): 3.4 µM
- CC50 (MDA-MB-435; [12]): 7.1 µM
- GI50 (U-251): 1.31 µM
- TGI (U-251): 2.65 µM
- CC50 (U-251; [12]): 5.34 µM
- GI50 (SNB-19): 2.54 µM
- TGI (SNB-19): 8.94 µM
- CC50 (SNB-19; [12]): 30.6 µM
- GI50 (SF-539 [10]): 1.76 µM
- TGI (SF-539 [10]): 3.26 µM
- CC50 (SF-539 [10]; [12]): 6.05 µM
- GI50 (SF-268 [11]): 1.69 µM
- TGI (SF-268 [11]): 3.97 µM
- CC50 (SF-268 [11]; [12]): 9.33 µM
